Assay results taken from patent publication US10603319B2, “Pyrimidine derivatives and their use in treating or preventing a respiratory syncytial virus infection” (REVIRAL LIMITED, priority 2016, dated 2020).
“And” between values parts separate entries of the source, which are not always exact repeats. Equal entries are not always repeated.

Tests used:
RSV A2 = assay: Plaque Reduction Assay 1 (Vero cells, immunostaining); type: cell-based; conditions: two replicate values, read-out: RSV Plaque Reduction assays A2 (PRNT1) (n = 2) IC50
Description: Plaque Reduction Assay 1: Vero cells were seeded in 96-well plates in a volume of 100 μL of Optimem supplemented with 3% FCS at a concentration of 4×10^4 cells per well. After an overnight incubation at 37° C. in a humidified 5% CO2 atmosphere, the monolayer of cells should be approximately 90% confluent. Antiviral compounds were titrated in pre-warmed Serum Free (SF) Optimem in a U-bottom 96 well plate. For compounds in a DMSO solution, titration in 100% DMSO was performed first and each concentration added individually to a 2× final concentration at 4% DMSO in SF media before mixing with virus (2% final DMSO with virus). Media was then removed from cells and replaced with PBS (100 μl/well). RSV stock was thawed and diluted in SF Optimem media to 4000 PFU/mLl. An equal volume of virus was added to compounds on the titration plate. PBS was removed from cells which were then inoculated with the virus/compound solution (50 μL/well). Cells were incubated for 2 h in a 37° C.+5% CO2 humidified incubator to allow infection. Inoculum was removed and media (Optimem+1% FCS) added to cells (100 μl/well). Cells were subsequently incubated for 48 h at 37° C.+5% CO2 in a humidified incubator. Immunostaining Procedure: Media was removed from cells and the monolayer washed with PBS. Cells were fixed with ice cold 80% Acetone in PBS (100 μl/well) for 20 mins at −20° C. Fixative was removed and cells are dried for 30 mins with plates inverted. Blocking solution (5% skim milk powder in PBS-T) was added to cells (150 μL/well) and plates were incubated for 30 mins at room temperature. Blocking solution was removed and plates washed once with PBS-T. Primary antibody in blocking solution was added to plates (50 μl/well) and incubated for 1 h at 37° C. Plates were then washed 3 times with PBS-T. Secondary antibody in blocking solution was added to plates ([…]) and incubated for 1 h at 37° C. in the dark. Plates were washed as above and then dried for 10 mins. Plates were scanned on the Odyssey Imager (Li-Cor Biosciences) at a resolution of […], medium quality and level 5 intensity in the […]. Data Analysis: Images obtained were saved and plaque numbers counted with the aid of computer imaging software. EC50 values for compounds were derived from dose response curves [three variable log(inhibitor) vs response] obtained using Graphpad Prism software.

P-gp (MDR1), human = assay: in vitro; type: in vitro ADME; conditions: dog, MDCK-MDR1
Description: MDR I-MDCK Permeability: Experimental Procedure
MDR1-MDCK cells obtained from the NIH (Rockville, Md., USA) are used between passage numbers 6-30. Cells are seeded onto Millipore Multiscreen Transwell plates at 3.4×10^5 cells/cm2. The cells are cultured in DMEM and media is changed on day 3. On day 4 the permeability study is performed. Cell culture and assay incubations are carried out at 37° C. in an atmosphere of 5% CO2 with a relative humidity of 95%. On the day of the assay, the monolayers are prepared by rinsing both basolateral and apical surfaces twice with Hanks Balanced Salt Solution (HBSS) at the desired pH warmed to 37° C. Cells are then incubated with HBSS at the desired pH in both apical and basolateral compartments for 40 min to stabilise physiological parameters.
The dosing solutions are prepared by diluting test compound with assay buffer to give a final test compound concentration of 10 μM (final DMSO concentration of 1% v/v). […]
Test compound permeability is assessed in duplicate. […]
Test and control compounds are quantified by LC-MS/MS cassette analysis using an 8-point calibration with appropriate dilution of the samples. The starting concentration (C0) is determined from the dosing solution and the experimental recovery calculated from C0 and both apical and basolateral compartment concentrations. […]

[1] = Liver microsomal stability, dog; type: in vitro ADME; conditions: male, Beagle, pooled liver microsomes, pH 7.4, 0.5 mg/mL protein, read-out: Liver Microsomal Stability (T1/2/mins) dog
Description: Microsomal Incubation: Experimental Procedure
Pooled human liver microsomes (pooled male and female), pooled rat liver microsomes (male Sprague Dawley rats) and pooled dog liver microsomes (male Beagle dog) are purchased from a reputable commercial supplier and stored at −80° C. prior to use.
Microsomes (final protein concentration 0.5 mg/mL), 0.1 M phosphate buffer pH 7.4 and test compound (final substrate concentration 3 μM; final DMSO concentration 0.25%) are pre-incubated at 37° C. prior to the addition of NADPH (final concentration 1 mM) to initiate the reaction. The final incubation volume is 50 μL. A control incubation is included for each compound tested where 0.1 M phosphate buffer pH 7.4 is added instead of NADPH (minus NADPH). Two control compounds are included with each species. All incubations are performed singularly for each test compound.
Compounds are incubated for 0, 5, 15, 30 and 45 min. The control (minus NADPH) is incubated for 45 min only. […] Following protein precipitation, the sample supernatants are combined in cassettes of up to 4 compounds, internal standard is added and samples analysed by LC-MS/MS. From a plot of ln peak area ratio (compound peak area/internal standard peak area) against time, the gradient of the line is determined. Subsequently, half-life and intrinsic clearance are calculated

Question: For `NC1CCN(c2ncc(CN3C(=O)C4(CC4)c4ccc(F)cc43)c(N[C@H]3CC[C@H](O)CC3)n2)C1` (stereo partly shown) [Compound 2, 1′-((2-(3-Aminopyrrolidin-1-yl)-4-(((1r,4r)-4-hydroxycyclohexyl)amino)pyrimidin-5-yl)methyl)-6′-fluorospiro[cyclopropane-1,3′-indolin]-2′-one], which IC50 (RSV A2) is on record?
Answer: The IC50 was 18.9 nM and 4.63 nM.

Question: And the Papp A→B at 60 min, 10 μM (P-gp (MDR1), human)?
Answer: Its Papp A→B at 60 min, 10 μM is 0.32 ×10⁻⁶ cm/s.

Question: What about the Papp B→A at 60 min, 10 μM (P-gp (MDR1), human) of the same compound?
Answer: Its Papp B→A at 60 min, 10 μM is 7.99 ×10⁻⁶ cm/s.

Question: And the half-life at 3 μM [1]?
Answer: Its half-life at 3 μM is over 4 h.
